Assay results reported in patent US9527887B2 (priority 2011, dated 2016).
Where two headings read alike, the source gives them in different places. Where a SMILES comes first, the peptide text is derived from it. Bridges are numbered along the chain shown (N, C = ends).

Tests used:
GC-C [1] = target: T1, GC-C (Homo sapiens, UniProt P25092); test: biochemical; type: binding
GC-C [2] = target: T1, GC-C; test: cell-based; conditions: 30 min at 37° C., IBMX
[3] = after oral administration at therapeutic dose levels; cited from earlier work

T1 sequence (P25092 24-1073 limits assumed): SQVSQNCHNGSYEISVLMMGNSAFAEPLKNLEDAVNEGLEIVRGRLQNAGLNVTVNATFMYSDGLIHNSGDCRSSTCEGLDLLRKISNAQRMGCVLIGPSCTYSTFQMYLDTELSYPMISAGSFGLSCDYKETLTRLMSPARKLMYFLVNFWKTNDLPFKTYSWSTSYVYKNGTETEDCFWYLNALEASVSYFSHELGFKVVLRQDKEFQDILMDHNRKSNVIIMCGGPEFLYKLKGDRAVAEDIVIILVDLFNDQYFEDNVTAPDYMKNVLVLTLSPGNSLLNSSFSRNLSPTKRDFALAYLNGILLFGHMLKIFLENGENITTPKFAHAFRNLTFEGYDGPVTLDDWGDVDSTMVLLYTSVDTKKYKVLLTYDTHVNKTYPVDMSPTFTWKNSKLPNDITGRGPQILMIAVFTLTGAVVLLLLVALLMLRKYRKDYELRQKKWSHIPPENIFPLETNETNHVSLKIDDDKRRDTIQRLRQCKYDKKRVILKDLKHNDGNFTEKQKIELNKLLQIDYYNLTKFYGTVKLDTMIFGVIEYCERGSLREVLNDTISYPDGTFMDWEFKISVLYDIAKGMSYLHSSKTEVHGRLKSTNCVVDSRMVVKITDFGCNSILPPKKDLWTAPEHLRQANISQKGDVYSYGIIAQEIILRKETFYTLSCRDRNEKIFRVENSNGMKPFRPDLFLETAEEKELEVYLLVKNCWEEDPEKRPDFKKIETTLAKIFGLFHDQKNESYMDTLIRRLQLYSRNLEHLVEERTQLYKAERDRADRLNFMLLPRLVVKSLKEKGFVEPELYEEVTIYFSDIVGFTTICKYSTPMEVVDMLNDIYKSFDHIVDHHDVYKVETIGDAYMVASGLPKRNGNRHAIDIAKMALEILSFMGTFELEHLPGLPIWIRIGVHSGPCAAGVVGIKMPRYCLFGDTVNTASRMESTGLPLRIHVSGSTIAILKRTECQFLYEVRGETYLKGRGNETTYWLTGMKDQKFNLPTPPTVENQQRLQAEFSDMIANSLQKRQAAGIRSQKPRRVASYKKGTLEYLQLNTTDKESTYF

Compound | Ki (GC-C [1]; Binding affinity for GC-C Ki (nM) pH 5) | Ki (GC-C [1]; Binding affinity for GC-C Ki (nM) pH 8) | EC50 (GC-C [2]; pH 5 (DMEM+20 mM MES), read-out: cGMP response in T84 cells EC50 nM pH 5) | EC50 (GC-C [2]; pH 8 (DMEM+50 mM sodium bicarbonate), read-out: cGMP response in T84 cells EC50 nM pH 8) | levels of linaclotide seen systemically [3]
CC(C)C[C@@H]1NC(=O)[C@H](CCC(=O)O)NC(=O)[C@@H]2CSSC[C@@H]3NC(=O)[C@H](C)NC(=O)[C@@H]4CCCN4C(=O)[C@H](CC(N)=O)NC(=O)[C@H](CSSC[C@H](NC(=O)[C@H](CC(=O)O)NC(=O)[C@H](CC(=O)O)NC(=O)[C@@H](N)CC(=O)O)C(=O)N2)NC(=O)[C@H](CSSC[C@@H](C(=O)N[C@@H](Cc2ccc(O)cc2)C(=O)O)NC(=O)CNC(=O)[C@H]([C@@H](C)O)NC3=O)NC1=O [Peptide 17, DDDCCELCCNPACTGCY] | 4.3 nM | 27.3 nM | 12.9 nM | 4980 nM | 
C[C@@H]1NC(=O)[C@@H]2CCCN2C(=O)[C@H](CC(N)=O)NC(=O)[C@@H]2CSSC[C@H](N)C(=O)N[C@H]3CSSC[C@H](NC1=O)C(=O)N[C@@H]([C@@H](C)O)C(=O)NCC(=O)N[C@H](C(=O)N[C@@H](Cc1ccc(O)cc1)C(=O)O)CSSC[C@H](NC(=O)[C@H](Cc1ccc(O)cc1)NC(=O)[C@H](CCC(=O)O)NC3=O)C(=O)N2 [linaclotide, Linaclotide] (H-CCEYCCNPACTGCY-OH; disulfide 1-6, 2-10, 5-13) |  |  |  |  | no detectable levels
